Among the data in patent US9938261B2, “Heterocyclic compounds and methods of use thereof” (AMBIT BIOSCIENCES CORPORATION, priority 2011, dated 2018) are IC50 and Kd values, retold here.

One assay has as its system M-NFS-60 cells. Put plainly: M-NFS-60 cell proliferation assay (Alamar Blue). Type of assay: cell-based, mouse. The following applies: Mus musculus; M-NFS-60 cell proliferation; read-out: CSF1R M-NFS-60 CTB:IC50. In short, it runs like this:
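Mouse M-NFS-60 cells growing on 20 ng/mL M-CSF in RPMI/10% FBS were exposed to compounds (9 half-log concentrations, 0.5% DMSO) for 72 h at 37 °C. Viability read by Alamar Blue fluorescence (ex 560/em 590 nm, 3 h). IC50 = 50% proliferation inhibition versus control, mean of duplicates.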
A general note: Alamar Blue is a resazurin reagent that responds to reducing activity.

The target in another assay is T1, FLT3 (Homo sapiens, UniProt P36888).
T1 construct: made in house
T1 sequence (P36888 27-993): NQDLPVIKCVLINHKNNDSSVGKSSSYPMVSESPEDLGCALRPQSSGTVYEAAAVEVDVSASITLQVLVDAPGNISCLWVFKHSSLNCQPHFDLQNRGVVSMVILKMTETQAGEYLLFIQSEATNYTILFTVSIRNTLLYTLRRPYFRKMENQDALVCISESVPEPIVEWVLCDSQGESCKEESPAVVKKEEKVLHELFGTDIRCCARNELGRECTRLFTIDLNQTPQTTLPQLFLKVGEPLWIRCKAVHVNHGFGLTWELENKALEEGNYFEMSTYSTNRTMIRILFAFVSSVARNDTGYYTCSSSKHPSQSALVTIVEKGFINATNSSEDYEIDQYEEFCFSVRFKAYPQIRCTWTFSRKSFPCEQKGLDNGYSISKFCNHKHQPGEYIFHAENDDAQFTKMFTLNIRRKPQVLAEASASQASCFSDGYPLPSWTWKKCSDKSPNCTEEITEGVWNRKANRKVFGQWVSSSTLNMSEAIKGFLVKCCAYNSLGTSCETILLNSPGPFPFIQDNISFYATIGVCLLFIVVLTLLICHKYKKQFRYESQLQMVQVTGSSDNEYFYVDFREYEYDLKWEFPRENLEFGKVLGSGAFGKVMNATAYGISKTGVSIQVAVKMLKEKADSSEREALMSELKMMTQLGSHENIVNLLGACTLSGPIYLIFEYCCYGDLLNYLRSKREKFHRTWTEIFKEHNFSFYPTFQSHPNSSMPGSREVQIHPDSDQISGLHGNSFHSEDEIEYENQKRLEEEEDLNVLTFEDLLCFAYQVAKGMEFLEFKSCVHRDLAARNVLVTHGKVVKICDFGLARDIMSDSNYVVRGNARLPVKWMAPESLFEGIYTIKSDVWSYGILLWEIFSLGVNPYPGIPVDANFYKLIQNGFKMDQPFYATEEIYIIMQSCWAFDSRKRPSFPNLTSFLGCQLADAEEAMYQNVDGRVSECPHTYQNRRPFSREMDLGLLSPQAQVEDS
As to the kind of experiment: Competition binding assay, FLT3 Kd. The following applies: competition binding. In short, it runs like this:
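Kinases, either T7 phage fusions or HEK-293-expressed and DNA-tagged, competed with test compounds for immobilized biotinylated affinity ligand on streptavidin beads in binding buffer (20% SeaBlock, 0.17×PBS, 0.05% Tween 20, 6 mM DTT). After 1 hour at room temperature, bead-bound kinase was eluted and quantified by qPCR; Kd from eleven-point threefold dilutions.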

One may read the IC50 as the point on the concentration scale where inhibition reaches its midpoint. As usually defined, the Kd is a measure of binding affinity in units of concentration. A lower Kd goes with a tighter complex. For the molecule `CC(C)(O)C#Cc1cnc2c(c1)ncn2Cc1ccc2nc(N[C@@H]3CCCC[C@H]3O)sc2c1` [Example 104, (1R,2R)-2-((6-((6-(3-hydroxy-3-methylbut-1-yn-1-yl)-3H-imidazo[4,5-b]pyridin-3-yl)methyl)benzo[d]thiazol-2-yl)amino)cyclohexanol], the IC50 in the assay on M-NFS-60 cells is no more than 50 nM. In addition, the Kd on FLT3 is no more than 200 nM.
On the same counts, the results for `O[C@@H]1CCCC[C@H]1Nc1nc2ccc(Cn3cnc4cnc(C(F)(F)F)nc43)cc2s1` [Example 105, (1R,2R)-2-((6-((2-(trifluoromethyl)-9H-purin-9-yl)methyl)benzo[d]thiazol-2-yl)amino)cyclohexanol] are 400 to 1500 nM and 200 to 1000 nM.
On the same counts, the results for `O[C@@H]1CCCC[C@H]1Nc1nc2ccc(Cc3cnc4ccc(Br)nn34)cc2s1` [Example 177, (1R,2R)-2-((6-((6-bromoimidazo[1,2-b]pyridazin-3-yl)methyl)benzo[d]thiazol-2-yl)amino)cyclohexanol] are no more than 50 nM and no more than 200 nM.
On to `CN1CCN(c2ccc3ncc(Cc4ccc5nc(N[C@@H]6CCCC[C@H]6O)sc5c4)n3n2)CC1` [Example 178, (1R,2R)-2-((6-((6-(4-methylpiperazin-1-yl)imidazo[1,2-b]pyridazin-3-yl)methyl)benzo[d]thiazol-2-yl)amino)cyclohexanol], for which, in the assay with M-NFS-60 cells, the IC50 is 400 to 1500 nM. Moreover, at FLT3, the Kd lay within 200 to 1000 nM.
On the same counts, the results for `OC[C@H]1CC[C@H](Nc2nc3ccc(Cn4cnc5cc(F)cnc54)cc3s2)CC1` [Example 179, (trans-4-((6-((6-fluoro-3H-imidazo[4,5-b]pyridin-3-yl)methyl)benzo[d]thiazol-2-yl)amino)cyclohexyl)methanol] are 400 to 1500 nM and 1000 to 5000 nM.
On the same counts, the results for `OC[C@H]1CC[C@@H](Nc2nc3ccc(Cn4cnc5cc(F)cnc54)cc3s2)CC1` [Example 180, (cis-4-((6-((6-fluoro-3H-imidazo[4,5-b]pyridin-3-yl)methyl)benzo[d]thiazol-2-yl)amino)cyclohexyl)methanol] are greater than 1500 nM and 1000 to 5000 nM.
On the same counts, the results for `CS[C@@H]1CCCC[C@H]1Nc1nc2ccc(Cn3cnc4cc(F)cnc43)cc2s1` [Example 181, 6-((6-fluoro-3H-imidazo[4,5-b]pyridin-3-yl)methyl)-N-((1R,2R)-2-(methylthio)cyclohexyl)benzo[d]thiazol-2-amine] are 400 to 1500 nM and 1000 to 5000 nM.
Consider `O[C@@H]1CCCC[C@H]1Nc1nc2ccc(Cn3cnc4cc(OC5COC5)ccc43)cc2s1` [Example 182, (1R,2R)-2-((6-((5-(oxetan-3-yloxy)-1H-benzo[d]imidazol-1-yl)methyl)benzo[d]thiazol-2-yl)amino)cyclohexanol], for which the IC50 with M-NFS-60 cells lay within 50 to 400 nM. Also, the dissociation constant Kd on FLT3 lay in the range of 200 to 1000 nM.
On the same counts, the results for `C=Cc1ccc2c(c1)ncn2Cc1ccc2nc(N[C@@H]3CCCC[C@H]3O)sc2c1` [Example 183, (1R,2R)-2-((6-((5-vinyl-1H-benzo[d]imidazol-1-yl)methyl)benzo[d]thiazol-2-yl)amino)cyclohexanol] are no more than 50 nM and 200 to 1000 nM.
On the same counts, the results for `O[C@@H]1CCCC[C@H]1Nc1nc2ccc(Cn3cnc4cc(C5=CCCCC5)ccc43)cc2s1` [Example 184, (1R,2R)-2-((6-((5-(cyclohex-1-en-1-yl)-1H-benzo[d]imidazol-1-yl)methyl)benzo[d]thiazol-2-yl)amino)cyclohexanol] are 50 to 400 nM and 200 to 1000 nM.
On the same counts, the results for `Cn1cc(-c2ccc3c(c2)ncn3Cc2ccc3nc(N[C@@H]4CCCC[C@H]4O)sc3c2)c(C(F)(F)F)n1` [Example 185, (1R,2R)-2-((6-((5-(1-methyl-3-(trifluoromethyl)-1H-pyrazol-4-yl)-1H-benzo[d]imidazol-1-yl)methyl)benzo[d]thiazol-2-yl)amino)cyclohexanol] are 50 to 400 nM and no more than 200 nM.
As to `O[C@@H]1CCCC[C@H]1Nc1nc2ccc(Cc3cnc4cccc(F)n34)cc2s1` [Example 186, (1R,2R)-2-((6-((5-fluoroimidazo[1,2-a]pyridin-3-yl)methyl)benzo[d]thiazol-2-yl)amino)cyclohexanol], the IC50 in the assay on M-NFS-60 cells fell in the range of 400 to 1500 nM. In addition, the Kd at FLT3 is no more than 200 nM.
On the same counts, the results for `O[C@@H]1CCCC[C@H]1Nc1nc2ccc(Cc3cnc4cc(N5CCOCC5)ccn34)cc2s1` [Example 187, (1R,2R)-2-((6-((7-morpholinoimidazo[1,2-a]pyridin-3-yl)methyl)benzo[d]thiazol-2-yl)amino)cyclohexanol] are 400 to 1500 nM and greater than 5000 nM.
On the same counts, the results for `CN1CCN(c2ccn3c(Cc4ccc5nc(N[C@@H]6CCCC[C@H]6O)sc5c4)cnc3c2)CC1` [Example 188, (1R,2R)-2-((6-((7-(4-methylpiperazin-1-yl)imidazo[1,2-a]pyridin-3-yl)methyl)benzo[d]thiazol-2-yl)amino)cyclohexanol] are 400 to 1500 nM and 1000 to 5000 nM.
For `Cc1cc(C)c2c(c1)ncn2Cc1ccc2nc(N[C@@H]3CCCC[C@H]3O)sc2c1` [Example 189], in the assay on M-NFS-60 cells, the IC50 was 50 to 400 nM. The same molecule came in with an equilibrium dissociation constant (Kd) on FLT3 of 200 to 1000 nM.
On the same counts, the results for `Cc1cc(Br)cc2ncn(Cc3ccc4nc(N[C@@H]5CCCC[C@H]5O)sc4c3)c12` [Example 190, (1R,2R)-2-((6-((5-bromo-7-methyl-1H-benzo[d]imidazol-1-yl)methyl)benzo[d]thiazol-2-yl)amino)cyclohexanol] are 50 to 400 nM and 200 to 1000 nM.
For `Fc1cnc2c(c1)ncn2Cc1ccc2nc(Nc3ccccc3)sc2c1` [Example 191, 6-((6-fluoro-3H-imidazo[4,5-b]pyridin-3-yl)methyl)-N-phenylbenzo[d]thiazol-2-amine], the IC50 with M-NFS-60 cells was greater than 1500 nM. Further, the Kd at FLT3 fell in the range of 1000 to 5000 nM.
`OC[C@@H]1CCC[C@@H](Nc2nc3ccc(Cn4cnc5cc(F)cnc54)cc3s2)C1` [Example 192, ((1R,3R)-3-((6-((6-fluoro-3H-imidazo[4,5-b]pyridin-3-yl)methyl)benzo[d]thiazol-2-yl)amino)cyclohexyl)methanol]: in the assay with M-NFS-60 cells, the IC50 fell in the range of 400 to 1500 nM. Further, the Kd on FLT3 was in the range of 1000 to 5000 nM.
On the same counts, the results for `O[C@@H]1[C@H](O)CCC[C@H]1Nc1nc2ccc(Cn3cnc4cc(F)cnc43)cc2s1` [Example 193, (1R,2S,3R)-3-((6-((6-fluoro-3H-imidazo[4,5-b]pyridin-3-yl)methyl)benzo[d]thiazol-2-yl)amino)cyclohexane-1,2-diol] are no more than 50 nM and 1000 to 5000 nM.
On the same counts, the results for `OC[C@H]1CCC[C@@H](Nc2nc3ccc(Cn4cnc5cc(F)cnc54)cc3s2)C1` [Example 194, ((1S,3R)-3-((6-((6-fluoro-3H-imidazo[4,5-b]pyridin-3-yl)methyl)benzo[d]thiazol-2-yl)amino)cyclohexyl)methanol] are 50 to 400 nM and 200 to 1000 nM.
On the same counts, the results for `N#Cc1cc2ncn(Cc3ccc4nc(N[C@@H]5CCCC[C@H]5O)oc4c3)c2cc1Cl` [Example 195, 6-chloro-1-((2-(((1R,2R)-2-hydroxycyclohexyl)amino)benzo[d]oxazol-6-yl)methyl)-1H-benzo[d]imidazole-5-carbonitrile] are 400 to 1500 nM and 1000 to 5000 nM.
